Source: US8207180B2, “Tricyclic indoles and (4,5-dihydro) indoles” (Nerviano Medical Sciences S.R.L., priority 2006, dated 2012)
Counter-ions that a name gives are not always drawn.

These molecules were tested against AKT-1 (Homo sapiens, UniProt P31749) (assay: AKT kinase inhibition assay: Dowex technique (AKT1, Aktide substrate)). Conditions: AKT1 5 nM, Aktide 30 μM, ATP 132 μM, 60 min rt.
Chain of AKT-1 (P31749 whole entry): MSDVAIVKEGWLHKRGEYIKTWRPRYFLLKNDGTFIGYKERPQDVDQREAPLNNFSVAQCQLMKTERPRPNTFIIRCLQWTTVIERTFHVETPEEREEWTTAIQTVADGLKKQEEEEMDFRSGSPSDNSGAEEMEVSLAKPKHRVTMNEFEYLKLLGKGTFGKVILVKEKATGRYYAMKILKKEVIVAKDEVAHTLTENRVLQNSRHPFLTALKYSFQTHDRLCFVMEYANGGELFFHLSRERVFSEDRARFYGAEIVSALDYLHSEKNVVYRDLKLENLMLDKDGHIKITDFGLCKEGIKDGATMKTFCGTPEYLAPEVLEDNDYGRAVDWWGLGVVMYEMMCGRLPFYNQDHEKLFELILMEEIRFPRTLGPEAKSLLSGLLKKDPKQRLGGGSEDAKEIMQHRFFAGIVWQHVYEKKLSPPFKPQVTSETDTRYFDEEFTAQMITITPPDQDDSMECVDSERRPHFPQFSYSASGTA
Type: biochemical
Source text: Method for AKT Kinase Inhibition Assay: Dowex Technique
General Principle for Kinase Inhibition Assays
Specific peptide or protein substrates are trans-phosphorylated by their specific serine -threonine or tyrosine kinase, in the presence of ATP traced with ^33Pγ-ATP, and in the presence of their own optimal buffer and cofactors.
At the end of the phosphorylation reaction, more than 98% cold ATP and radioactive ATP is captured by an excess of the ion exchange dowex resin; the resin then settles down to the bottom of the reaction plate by gravity.
Supernatant, containing the phosphorylated substrate, is subsequently withdrawn and transferred into a counting plate, then evaluated by β-counting.
• TRIS 50 mM, pH 7.5 • MgCl2 10 mM • DTT 1 mM • NaVO3 […] • BSA 0.2 mg/ml • Assay conditions (final concentrations) for AKT1 • Enzyme concentration (AKT1)=5 nM • Substrate concentration (Aktide, 14 residues peptide, from PRIMM)=30 μM • ATP=132 μM • ^33P-γ-ATP=0.88 nM Robotized Dowex Assay
The “test” mixture consisted of: • 1) 3× Enzyme mix (done in Kinase Buffer 3×), 5 μl/well • 2) 3× substrate and ATP mix (done in DDH2O), together with ^33P-γ-ATP, 5 μl/well • 3) 3× test compounds (diluted into DDH2O-3% DMSO)-5 μl/well Dilution of Compounds
Test compounds are received as 100% DMSO solution at the indicated concentrations: • i—for % inhibition studies, individual dilution plates at 1 mM, 100 μM and 10 μM are prepared in 100% DMSO, then diluted at a 3× concentration (30, 3 and 0.3 μM) in DDH2O, 3% DMSO. A Multimek 96 (Beckman) is used for dilutions and compound pipetting into the test plates • ii—for IC50 determination, compounds are received as 1 mM, 100% DMSO solutions, plated into the first column of a microtiter plate (A1 to G1), 100 μl.
Well H1 is left empty for the internal standard inhibitor, staurosporine.
A Biomek 2000 (Beckman) is used for serial 1:3 dilutions in water, 3% DMSO, from column A1 to A10 and for all the seven compounds in the plate. In a standard experiment, the highest concentration of all compounds is 30 μM, then diluted in the final test mixture down to 10 μM.
384-well plates, V bottom (test plates) are prepared with 5 μl of the compound dilution (3×) and then placed onto a PlateTrak 12 robotized station (Perkin Elmer; the robot has one 384-tips pipetting head for starting the assay plus one 96-tips head for dispensing the resin) together with one reservoir for the Enzyme mix (3×) and one for the ATP mix (3×).
At the start of the run, the robot aspirates 5 μl of ATP mix, makes an air gap inside the tips (3 μl) and aspirates 5 μl of AKT mix. The following dispensation into the plates allows the kinase reaction to start upon 3 cycles of mixing, done by the robot itself.
The robot incubates the plates for 60 minutes at room temperature, and then stops the reaction by pipetting 70 μl of dowex resin suspension into the reaction mix. Three cycles of mixing are done immediately after the addition of the resin.
Another mixing cycle is performed after all the plates are stopped, this time using normal tips: the plates are then allowed to rest for about one hour in order to maximize ATP capture. At this point, 20 μl of the supernatant are transferred into 384-Optiplates (Perkin-Elmer), with 70 μl of Microscint 40 (Perkin-Elmer); after 5 min of orbital shaking the plates are read on a Perkin-Elmer Top Count radioactivity counter.
Data are analysed by an internally customized version of the SW package “Assay Explorer” that provides either % inhibition for primary assays or sigmoidal fittings of the ten-dilutions curves for IC50 determination, for the secondary assays/hit confirmation routines.
With `NC[C@H](Cc1ccccc1)NC(=O)c1cc2c(n1CC(F)(F)F)-c1ccncc1CC2` [L9, N-[(1S)-2-Amino-1-benzylethyl]-1-(2,2,2-trifluoroethyl)-4,5-dihydro-1H-pyrrolo[2,3-f]isoquinoline-2-carboxamide] the IC50 was < 500 nM.
With `NC[C@H](Cc1ccccc1)NC(=O)c1cn(CCO)c2c1CCc1cnccc1-2` [E21, N-[(1S)-2-Amino-1-benzylethyl]-1-(2-hydroxyethyl)-4,5-dihydro-1H-pyrrolo[2,3-f]isoquinoline-3-carboxamide] the IC50 was < 500 nM.
`NC[C@H](Cc1ccccc1)NC(=O)c1cn(CC(F)(F)F)c2c1CCc1cnccc1-2` [E14, N-[(1S)-2-Amino-1-benzylethyl]-1-(2,2,2-trifluoroethyl)-4,5-dihydro-1H-pyrrolo[2,3-f]isoquinoline-3-carboxamide] was tested, and the IC50 was < 500 nM.
`NC[C@H](Cc1ccccc1)NC(=O)c1cc2c([nH]1)-c1ccncc1CC2` [L6, N-[(1S)-2-Amino-1-benzylethyl]-4,5-dihydro-1H-pyrrolo[2,3-f]isoquinoline-2-carboxamide] was tested, and the IC50 was < 500 nM.
`CC(C)(C)OC(=O)NC[C@H](Cc1ccccc1)NC(=O)c1c[nH]c2c1CCc1cnccc1-2` [E11, tert-Butyl {(2S)-2-[(4,5-dihydro-1H-pyrrolo[2,3-f]isoquinolin-3-ylcarbonyl)amino]-3-phenylpropyl}carbamate] was tested, and the IC50 was < 500 nM.
With `NC[C@H](Cc1ccccc1)NC(=O)c1c[nH]c2c1CCc1cnccc1-2` [E15, N-[(1S)-2-Amino-1-benzylethyl]-4,5-dihydro-1H-pyrrolo[2,3-f]isoquinoline-3-carboxamide] the IC50 was < 500 nM.
With `CC(C)(C)OC(=O)NC[C@H](Cc1ccccc1)NC(=O)c1cn(CC(F)(F)F)c2c1CCc1cnccc1-2` [E12, Tert-Butyl [(2S)-3-phenyl-2-({[1-(2,2,2-trifluoroethyl) -4,5-dihydro-1H-pyrrolo[2,3-f]isoquinolin-3-yl]carbonyl}amino)propyl]carbamate] the IC50 was < 500 nM.

Each molecule was assayed against Cdc7/Dbf4 (Homo sapiens, UniProt O00311) (assay: Inhibition assay of Cdc7/Dbf4 activity (Dowex resin capture, 33P-ATP, MCM2 substrate)). Conditions: MCM2 6 μM, ATP 2 μM, enzyme 2 nM, 60 min rt.
Chain of Cdc7/Dbf4 (O00311 whole entry): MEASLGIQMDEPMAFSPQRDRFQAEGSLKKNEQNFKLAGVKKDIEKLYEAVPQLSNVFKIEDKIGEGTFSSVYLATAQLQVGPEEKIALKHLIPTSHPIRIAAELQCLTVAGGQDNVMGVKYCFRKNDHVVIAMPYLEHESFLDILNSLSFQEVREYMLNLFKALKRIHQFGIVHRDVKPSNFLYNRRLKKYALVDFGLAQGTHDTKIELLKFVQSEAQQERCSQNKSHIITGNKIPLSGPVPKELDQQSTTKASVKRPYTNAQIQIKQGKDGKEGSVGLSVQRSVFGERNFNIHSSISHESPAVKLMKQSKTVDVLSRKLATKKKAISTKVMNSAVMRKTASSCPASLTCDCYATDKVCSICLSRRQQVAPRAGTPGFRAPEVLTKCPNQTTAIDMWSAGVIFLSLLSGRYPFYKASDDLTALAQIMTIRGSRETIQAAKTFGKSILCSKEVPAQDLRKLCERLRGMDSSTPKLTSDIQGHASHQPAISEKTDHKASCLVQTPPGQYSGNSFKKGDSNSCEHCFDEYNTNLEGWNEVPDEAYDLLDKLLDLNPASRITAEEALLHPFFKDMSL
Chain of Cdc7/Dbf4 (Q9UBU7 whole entry partner): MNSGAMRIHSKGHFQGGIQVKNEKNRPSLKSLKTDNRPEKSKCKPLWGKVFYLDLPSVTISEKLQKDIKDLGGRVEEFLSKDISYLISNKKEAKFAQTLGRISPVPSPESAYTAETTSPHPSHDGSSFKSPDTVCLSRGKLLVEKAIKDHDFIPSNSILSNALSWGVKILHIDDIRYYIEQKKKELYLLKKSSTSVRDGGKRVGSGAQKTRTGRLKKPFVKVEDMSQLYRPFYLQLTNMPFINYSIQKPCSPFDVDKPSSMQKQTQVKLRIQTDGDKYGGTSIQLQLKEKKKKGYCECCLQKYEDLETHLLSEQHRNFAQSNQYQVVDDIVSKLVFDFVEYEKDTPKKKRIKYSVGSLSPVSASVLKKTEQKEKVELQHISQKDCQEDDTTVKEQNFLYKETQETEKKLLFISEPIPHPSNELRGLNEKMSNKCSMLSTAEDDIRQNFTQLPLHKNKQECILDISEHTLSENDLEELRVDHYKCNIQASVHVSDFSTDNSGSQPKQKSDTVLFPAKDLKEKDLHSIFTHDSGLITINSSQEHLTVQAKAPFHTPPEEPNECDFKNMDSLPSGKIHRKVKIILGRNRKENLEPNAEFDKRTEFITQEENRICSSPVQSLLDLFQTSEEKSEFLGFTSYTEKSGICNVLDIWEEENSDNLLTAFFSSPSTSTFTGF
Type: biochemical
Procedure: Inhibition Assay of Cdc7 Activity
The inhibiting activity of putative Cdc7 inhibitors and the potency of selected compounds is determined through a method of assay based on the use of Dowex resin capture technology.
The assay consists of the transfer of radioactivity labeled phosphate moiety by the kinase to an acceptor substrate. The resulting 33P-labeled product is separated from unreacted tracer, transferred into a scintillation cocktail and light emitted is measured in a scintillation counter.
The inhibition assay of Cdc7/Dbf4 activity is performed according to the following protocol.
The MCM2 substrate is trans-phosphorylated by the Cdc7/Dbf4 complex in the presence of ATP traced with γ^33-ATP. The reaction is stopped by addition of Dowex resin in the presence of formic acid. Dowex resin particles capture unreacted γ^33-ATP and drag it to the bottom of the well while ^33P phosphorylated MCM2 substrate remains in solution. The supernatant is collected, transferred into Optiplate plates and the extent of substrate phosphorylation is evaluated by β counting.
The inhibition assay of Cdc7/Dbf4 activity was performed in 96 wells plate according to the following protocol.
To each well of the plate were added: • 10 μl test compound (10 increasing concentrations in the nM to uM range to generate a dose-response curve). The solvent for test compounds contained 3% DMSO. (final concentration 1%) • 10 μl substrate MCM2 (6 μM final concentration), a mixture of cold ATP (2 μM final concentration) and radioactive ATP (1/5000 molar ratio with cold ATP). • 10 μl enzyme (Cdc7/Dbf4, 2 nM final concentration) that started the reaction. The buffer of the reaction consisted in 50 mM HEPES pH 7.9 containing 15 mM MgCl2, 2 mM DTT, 3 uM NaVO3, 2 mM glycerophosphate and 0.2 mg/ml BSA. • After incubation for 60 minutes at room temperature, the reaction was stopped by adding to each well 150 μl of Dowex resin in the presence of 150 mM formic acid. After other 60 min incubation, 50 μl of suspension were withdrawn and transferred into 96-well OPTIPLATEs containing 150 μl of MicroScint 40 (Packard); after 5-10 minutes shaking the plates were read for 1 min in a Packard TOP-Count radioactivity reader.
IC50 determination: inhibitors were tested at different concentrations ranging from 0.0005 to 10 μIM. Experimental data were analyzed by the computer program Assay Explorer using the four parameter logistic equation: y=bottom+(top−bottom)/(1+10^((log IC50−x)*slope)) where x is the logarithm of the inhibitor concentration, y is the response; y starts at bottom and goes to top with a sigmoid shape.
For `Cn1cc(C(=O)O)c2ccc3[nH]ncc3c21` [B2, 1-Methyl-1,6-dihydro-1,6,7-triaza-as-indacene-3-carboxylic acid], the IC50 was < 100 nM.
`NC(=O)c1c(-c2ccc(Br)cc2)[nH]c2c1ccc1cnccc12` [G6, 2-(4-Bromo-phenyl)-1H-pyrrolo[2,3-f]isoquinoline-3-carboxylic acid amide] was tested, and the IC50 was < 100 nM.
For `Cc1ccccc1-c1c(C(N)=O)c2c(n1C)-c1ccncc1CC2` [F5, 1-Methyl-2-o-tolyl-4,5-dihydro-1H-pyrrolo[2,3-f]isoquinoline-3-carboxylic acid amide], the IC50 was < 100 nM.
For `O=C(O)c1cc2c([nH]1)-c1ccncc1CC2` [L2, 4,5-Dihydro-1H-pyrrolo[2,3-f]isoquinoline-2-carboxylic acid], the IC50 was < 1000 nM.
In the case of `NC(=O)c1c[nH]c2c1CCc1cnccc1-2` [E10, 4,5-Dihydro-1H-pyrrolo[2,3-f]isoquinoline-3-carboxylic acid amide], the IC50 is reported as < 1000 nM.
For `O=Cc1c(-c2ccc(N3CCOCC3)cc2)[nH]c2c1ccc1cnccc12` [G7, 2-(4-Morpholin-4-yl-phenyl)-1H-pyrrolo[2,3-f]isoquinoline-3-carbaldehyde], the IC50 was < 1000 nM.
In the case of `Cn1c(Cl)c(C(N)=O)c2ccc3[nH]ncc3c21` [C1, 2-Chloro-1-methyl-1,6-dihydro-1,6,7-triaza-as-indacene-3-carboxylic acid amide], the IC50 is reported as < 100 nM.
In the case of `CCOC(=O)c1c(Br)[nH]c2c1CCc1cnccc1-2` [F1, 2-Bromo-4,5-dihydro-1H-pyrrolo[2,3-f]isoquinoline-3-carboxylic acid ethyl ester hydrobromide], the IC50 is reported as < 1000 nM.
In the case of `O=C(O)c1cn(CC(F)(F)F)c2c1CCc1cnccc1-2` [E7, 1-(2,2,2-Trifluoroethyl)-4,5-dihydro-1H-pyrrolo[2,3-f]isoquinoline-3-carboxylic acid], the IC50 is reported as < 1000 nM.
In the case of `Cn1c(-c2ccccc2)c(C(N)=O)c2ccc3n[nH]cc3c21` [C2, 1-Methyl-2-phenyl-1,7-dihydro-1,6,7-triaza-as-indacene-3-carboxylic acid amide], the IC50 is reported as < 100 nM.
For `O=C(O)c1c[nH]c2c1CCc1cnccc1-2` [E6, 4,5-Dihydro-1H-pyrrolo[2,3-f]isoquinoline-3-carboxylic acid], the IC50 was < 1000 nM.
For `Cn1cc(C(N)=O)c2ccc3n[nH]cc3c21` [B3, 1-Methyl-1,7-dihydro-1,6,7-triaza-as-indacene-3-carboxylic acid amide], the IC50 was < 100 nM.
With `O=Cc1c(-c2ccncc2)[nH]c2c1ccc1cnccc12` [H1, 2-Pyridin-4-yl-1H-pyrrolo[2,3-f]isoquinoline-3-carbaldehyde] the IC50 was < 100 nM.
In the case of `O=C(O)c1c(-c2ccc(Br)cc2)[nH]c2c1ccc1cnccc12` [G5, 2-(4-Bromo-phenyl)-1H-pyrrolo[2,3-f]isoquinoline-3-carboxylic acid], the IC50 is reported as < 100 nM.
`Cn1c(-c2ccccc2)c(C(N)=O)c2ccc3cnc(N)nc3c21` [N10, 8-Amino-1-methyl-2-phenyl-1H-1,7,9-triaza-cyclopenta[a]naphthalene-3-carboxylic acid amide] was tested, and the IC50 was < 100 nM.
With `NC(=O)c1c(-c2ccccc2)[nH]c2c1ccc1cnc(N)nc12` [N9, 8-Amino-2-phenyl-1H-1,7,9-triaza-cyclopenta[a]naphthalene-3-carboxylic acid amide] the IC50 was < 100 nM.
`NC(=O)c1c(-c2ccncc2)[nH]c2c1ccc1cnccc12` [H3, 2-Pyridin-4-yl-1H-pyrrolo[2,3-f]isoquinoline-3-carboxylic acid amide] was tested, and the IC50 was < 100 nM.
For `NC(=O)c1c(-c2ccccc2)[nH]c2c1ccc1cnccc12` [G3, 2-Phenyl-1H-pyrrolo[2,3-f]isoquinoline-3-carboxylic acid amide], the IC50 was < 100 nM.
`Cn1c2c(c(C(N)=O)c1-c1ccccc1)CCc1cnc(N)nc1-2` [N4, 8-Amino-1-methyl-2-phenyl-4,5-dihydro-1H-1,7,9-triaza-cyclopenta[a]naphthalene-3-carboxylic acid amide] was tested, and the IC50 was < 1000 nM.
